“And” between values parts separate entries of the source, which are not always exact repeats. Identical values can stand only once. Like-named read-outs stand apart in the source and are kept apart here.
Experiments:
[1] = system: feline calicivirus F4 strain; experiment: Inactivation of feline caliciviruses (Example 10), plaque assay on CRFK cells; type: cell-based
[2] = system: poliovirus type I live vaccine strain
influenza viruses = details: pH 6.5 (FIG. 4)
[3] = system: feline calicivirus F4 strain
[4] = system: Herpes simplex virus type I VR-539; experiment: Inactivation of herpesviruses, plaque assay on Vero cells; type: cell-based
[5] = system: influenza virus Type A Aichi strain A/Aichi/68 (H3N2); type: cell-based

## chlorous acid [Chlorous acid aqueous solution]
[1]
  active chlorine concentration at which feline caliciviruses were inactivated to below the detectable limit: ≥ 200 ppm
  effect of pH on inactivation of feline caliciviruses: hardly any effect due to pH
[2]
  disinfection of polioviruses: disinfection was only observed at pH of 5.5
[2]; pH 5.5
  concentration at which most polioviruses were disinfected: 500 ppm
Influenza viruses; 5 ppm chlorous acid concentration
  contact needed to completely inactivate influenza viruses: one minute or less
Influenza viruses; 5 ppm upon contact
  time after which disinfecting of influenza viruses was almost completed: ~30 s
[3]
  concentration with disinfecting capability against feline caliciviruses: 400 ppm
  ratio of the amount of residual infectious viruses: 0.38 and 0.66
[4]; pH 4.5-5.5
  concentration exhibiting a superb sterilizing effect on HSV-I: ≥ 100 ppm
[4]; pH 4.5, 10 ppm
  Number of Residual Viruses in Test Solution/Number of Residual Viruses only with Buffer × 100 (%): 48%
[4]; pH 4.5, 50 ppm
  Number of Residual Viruses in Test Solution/Number of Residual Viruses only with Buffer × 100 (%): 1.3%
[4]; pH 4.5, 100 ppm
  Number of Residual Viruses in Test Solution/Number of Residual Viruses only with Buffer × 100 (%): <0.3%
[4]; pH 4.5, 100 ppm, listed as chlorous acid aqueous solution
  Number of Residual Viruses in Test Solution/Number of Residual Viruses only with Buffer × 100 (%): below the detectable limit
[4]; pH 4.5, 150 ppm
  Number of Residual Viruses in Test Solution/Number of Residual Viruses only with Buffer × 100 (%): <0.2%
[4]; pH 4.5, 150 ppm, listed as chlorous acid aqueous solution
  Number of Residual Viruses in Test Solution/Number of Residual Viruses only with Buffer × 100 (%): below the detectable limit
[4]; pH 4.5, 200 ppm
  Number of Residual Viruses in Test Solution/Number of Residual Viruses only with Buffer × 100 (%): <0.4%
[4]; pH 4.5, 200 ppm, listed as chlorous acid aqueous solution
  Number of Residual Viruses in Test Solution/Number of Residual Viruses only with Buffer × 100 (%): below the detectable limit
[4]; pH 5.5, 10 ppm
  Number of Residual Viruses in Test Solution/Number of Residual Viruses only with Buffer × 100 (%): 100%
[4]; pH 5.5, 50 ppm
  Number of Residual Viruses in Test Solution/Number of Residual Viruses only with Buffer × 100 (%): 12.1%
[4]; pH 5.5, 100 ppm
  Number of Residual Viruses in Test Solution/Number of Residual Viruses only with Buffer × 100 (%): 10.1%
[4]; pH 5.5, 150 ppm
  Number of Residual Viruses in Test Solution/Number of Residual Viruses only with Buffer × 100 (%): <0.2%
[4]; pH 5.5, 150 ppm, listed as chlorous acid aqueous solution
  Number of Residual Viruses in Test Solution/Number of Residual Viruses only with Buffer × 100 (%): below the detectable limit
[4]; pH 5.5, 200 ppm
  Number of Residual Viruses in Test Solution/Number of Residual Viruses only with Buffer × 100 (%): <0.5%
[4]; pH 5.5, 200 ppm, listed as chlorous acid aqueous solution
  Number of Residual Viruses in Test Solution/Number of Residual Viruses only with Buffer × 100 (%): below the detectable limit
[4]; pH 6.5, 10 ppm
  Number of Residual Viruses in Test Solution/Number of Residual Viruses only with Buffer × 100 (%): 100%
[4]; pH 6.5, 50 ppm
  Number of Residual Viruses in Test Solution/Number of Residual Viruses only with Buffer × 100 (%): 63.6%
[4]; pH 6.5, 100 ppm
  Number of Residual Viruses in Test Solution/Number of Residual Viruses only with Buffer × 100 (%): 76.6%
[4]; pH 6.5, 150 ppm
  Number of Residual Viruses in Test Solution/Number of Residual Viruses only with Buffer × 100 (%): 22.2%
[4]; pH 6.5, 200 ppm
  Number of Residual Viruses in Test Solution/Number of Residual Viruses only with Buffer × 100 (%): <0.6%
[4]; pH 7.5, 10 ppm
  Number of Residual Viruses in Test Solution/Number of Residual Viruses only with Buffer × 100 (%): 100%
[4]; pH 7.5, 50 ppm
  Number of Residual Viruses in Test Solution/Number of Residual Viruses only with Buffer × 100 (%): 77.4%
[4]; pH 7.5, 100 ppm
  Number of Residual Viruses in Test Solution/Number of Residual Viruses only with Buffer × 100 (%): 84.7%
[4]; pH 7.5, 150 ppm
  Number of Residual Viruses in Test Solution/Number of Residual Viruses only with Buffer × 100 (%): 55.8%
[4]; pH 7.5, 200 ppm
  Number of Residual Viruses in Test Solution/Number of Residual Viruses only with Buffer × 100 (%): 16.8%
[4]; pH 8.5, 10 ppm
  Number of Residual Viruses in Test Solution/Number of Residual Viruses only with Buffer × 100 (%): 100%
[4]; pH 8.5, 50 ppm
  Number of Residual Viruses in Test Solution/Number of Residual Viruses only with Buffer × 100 (%): 75.3%
[4]; pH 8.5, 100 ppm
  Number of Residual Viruses in Test Solution/Number of Residual Viruses only with Buffer × 100 (%): 98.4%
[4]; pH 8.5, 150 ppm
  Number of Residual Viruses in Test Solution/Number of Residual Viruses only with Buffer × 100 (%): 80%
[4]; pH 8.5, 200 ppm
  Number of Residual Viruses in Test Solution/Number of Residual Viruses only with Buffer × 100 (%): 30%
[4]; pH of 6.5 or lower (FIG. 2B)
  concentration giving a sufficient effect: ≥ 200 ppm
[4]; significant at pH of 5.5 or lower (FIG. 2B)
  concentration giving a sufficient sterilizing effect: ≥ 50 ppm
[5]; pH 5.5
  concentration at which influenza viruses were inactivated to below the detectable limit: ≤ 100 ppm
  ratio of the amount of residual infectious viruses: 0.34
[5]; pH 6.5
  infectious viruses decreased to: about 1%
  ratio of the amount of residual infectious viruses: 0.63
[5]; pH 7.5
  concentration at which viruses were inactivated to about the detectable limit: 200 ppm
  ratio of the amount of residual infectious viruses: 1.16
  virus disinfection effect on influenza viruses: significant virus disinfection effect
[5]; pH 8.5
  effect on influenza viruses: there is an effect even at pH of 8.5
  ratio of the amount of residual infectious viruses: 1.31

## [Na+].[O-]Cl [(4) sodium hypochlorite aqueous solution]
[4]; pH 4.5, 200 ppm
  Number of Residual Viruses in Test Solution/Number of Residual Viruses only with Buffer × 100 (%): below the detectable limit

## sodium chlorite [Sodium chlorite aqueous solution]
[4]; pH 4.5, 10 ppm
  Number of Residual Viruses in Test Solution/Number of Residual Viruses only with Buffer × 100 (%): 52%
[4]; pH 4.5, 50 ppm
  Number of Residual Viruses in Test Solution/Number of Residual Viruses only with Buffer × 100 (%): 51.5%
[4]; pH 4.5, 100 ppm
  Number of Residual Viruses in Test Solution/Number of Residual Viruses only with Buffer × 100 (%): 27.6%
[4]; pH 4.5, 150 ppm
  Number of Residual Viruses in Test Solution/Number of Residual Viruses only with Buffer × 100 (%): 34.4%
[4]; pH 4.5, 200 ppm
  Number of Residual Viruses in Test Solution/Number of Residual Viruses only with Buffer × 100 (%): <0.4%
[4]; pH 5.5, 10 ppm
  Number of Residual Viruses in Test Solution/Number of Residual Viruses only with Buffer × 100 (%): 100%
[4]; pH 5.5, 50 ppm
  Number of Residual Viruses in Test Solution/Number of Residual Viruses only with Buffer × 100 (%): 87.3%
[4]; pH 5.5, 100 ppm
  Number of Residual Viruses in Test Solution/Number of Residual Viruses only with Buffer × 100 (%): 93.2%
[4]; pH 5.5, 150 ppm
  Number of Residual Viruses in Test Solution/Number of Residual Viruses only with Buffer × 100 (%): 100%
[4]; pH 5.5, 200 ppm
  Number of Residual Viruses in Test Solution/Number of Residual Viruses only with Buffer × 100 (%): 8.1%
[4]; pH 6.5, 10 ppm
  Number of Residual Viruses in Test Solution/Number of Residual Viruses only with Buffer × 100 (%): 100%
[4]; pH 6.5, 50 ppm
  Number of Residual Viruses in Test Solution/Number of Residual Viruses only with Buffer × 100 (%): 83.6%
[4]; pH 6.5, 100 ppm
  Number of Residual Viruses in Test Solution/Number of Residual Viruses only with Buffer × 100 (%): 87.9%
[4]; pH 6.5, 150 ppm
  Number of Residual Viruses in Test Solution/Number of Residual Viruses only with Buffer × 100 (%): 100%
[4]; pH 6.5, 200 ppm
  Number of Residual Viruses in Test Solution/Number of Residual Viruses only with Buffer × 100 (%): 15.3%
[4]; pH 7.5, 10 ppm
  Number of Residual Viruses in Test Solution/Number of Residual Viruses only with Buffer × 100 (%): 100%
[4]; pH 7.5, 50 ppm
  Number of Residual Viruses in Test Solution/Number of Residual Viruses only with Buffer × 100 (%): 90.4%
[4]; pH 7.5, 100 ppm
  Number of Residual Viruses in Test Solution/Number of Residual Viruses only with Buffer × 100 (%): 100%
[4]; pH 7.5, 150 ppm
  Number of Residual Viruses in Test Solution/Number of Residual Viruses only with Buffer × 100 (%): 100%
[4]; pH 7.5, 200 ppm
  Number of Residual Viruses in Test Solution/Number of Residual Viruses only with Buffer × 100 (%): 10.4%
[4]; pH 8.5, 10 ppm
  Number of Residual Viruses in Test Solution/Number of Residual Viruses only with Buffer × 100 (%): 100%
[4]; pH 8.5, 50 ppm
  Number of Residual Viruses in Test Solution/Number of Residual Viruses only with Buffer × 100 (%): 91.1%
[4]; pH 8.5, 100 ppm
  Number of Residual Viruses in Test Solution/Number of Residual Viruses only with Buffer × 100 (%): 78.2%
[4]; pH 8.5, 150 ppm
  Number of Residual Viruses in Test Solution/Number of Residual Viruses only with Buffer × 100 (%): 94%
[4]; pH 8.5, 200 ppm
  Number of Residual Viruses in Test Solution/Number of Residual Viruses only with Buffer × 100 (%): 7.6%
[5]; pH 5.5
  ratio of the amount of residual infectious viruses: 1.07
  residual relative infectivity: 1/10
[5]; pH 6.5
  ratio of the amount of residual infectious viruses: 1.19
[5]; pH 7.5
  ratio of the amount of residual infectious viruses: 1.09
[5]; pH 8.5
  ratio of the amount of residual infectious viruses: 1.07

From patent publication US20160113282A1 (HONBU SANKEI CO., LTD., priority 2013, published 2016)
